Source: US20020026053A1, “Novel 3-(substituted) -2- indolinones compounds and use thereof as inhibitors of protein kinase activity” (priority 1997, published 2002)

System: FLK-1 receptor
Assay: FLK-1 Assay (cellular/catalytic ELISA, VEGF-stimulated phosphotyrosine)
Format: cell-based
Design: concentration or dose not given beside the values
Conditions: protocol P.110
Procedure, shortened: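 Receptor phosphotyrosine ELISA: Flk-1-expressing NIH3T3 C7#3 cells, starved overnight in 0.1% FBS medium, received compound (1:200 final dilution, 0.5% DMSO) for 2 h at 37 °C, then VEGF. Anti-FLK-1-captured receptor was probed with anti-phosphotyrosine UB40 and peroxidase/ABTS read-out, relative to cells without compound.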

SMILES	Flk Kinase % Inhibition (P.110)
Cc1ccc(Oc2cccc(C=C3C(=O)Nc4c(Br)cc(Br)cc43)c2)cc1 [10738/A02]	−14.2%
O=C1Nc2c(Br)cc(Br)cc2C1=Cc1cccc(Oc2ccc(Cl)c(Cl)c2)c1 [10738/A03]	12.8%
COc1ccc(C=C2C(=O)Nc3c(Br)cc(Br)cc32)cc1O [10738/A04]	−16.2%
O=C1Nc2c(Br)cc(Br)cc2C1=Cc1cc(O)ccc1[N+](=O)[O-] [10738/A05]	−24.5%
O=C1Nc2c(Br)cc(Br)cc2C1=Cc1cccc(O)c1O [10738/A06]	77.3%
O=C1Nc2c(Br)cc(Br)cc2C1=Cc1cc(O)cc(O)c1 [10738/A07]	−22.1%
O=C1Nc2c(Br)cc(Br)cc2C1=Cc1ccc(Cl)c(Cl)c1 [10738/A08]	−9.3%
COc1ccccc1C=C1C(=O)Nc2c(Br)cc(Br)cc21 [10738/A09]	−9.8%
CC(C)c1ccc(C=C2C(=O)Nc3c(Br)cc(Br)cc32)cc1 [10738/A10]	−8.5%
CCCOc1ccc(C=C2C(=O)Nc3c(Br)cc(Br)cc32)cc1 [10738/A11]	−7.5%
Cc1ccc(Oc2cccc(C=C3C(=O)Nc4ccc(I)cc43)c2)cc1 [10738/B02]	−8.5%
O=C1Nc2ccc(I)cc2C1=Cc1cccc(Oc2ccc(Cl)c(Cl)c2)c1 [10738/B03]	−1.2%
COc1ccc(C=C2C(=O)Nc3ccc(I)cc32)cc1O [10738/B04]	55.0%
O=C1Nc2ccc(I)cc2C1=Cc1cc(O)ccc1[N+](=O)[O-] [10738/B05]	−13.1%
O=C1Nc2ccc(I)cc2C1=Cc1cccc(O)c1O [10738/B06]	−44.1%
O=C1Nc2ccc(I)cc2C1=Cc1cc(O)cc(O)c1 [10738/B07]	−22.7%
O=C1Nc2ccc(I)cc2C1=Cc1ccc(Cl)c(Cl)c1 [10738/B08]	−0.7%
COc1ccccc1C=C1C(=O)Nc2ccc(I)cc21 [10738/B09]	−6.2%
CC(C)c1ccc(C=C2C(=O)Nc3ccc(I)cc32)cc1 [10738/B10]	14.3%
CCCOc1ccc(C=C2C(=O)Nc3ccc(I)cc32)cc1 [10738/B11]	8.8%
Cc1ccc(Oc2cccc(C=C3C(=O)Nc4ccc(Br)c(C)c43)c2)cc1 [10738/C02]	−0.1%
Cc1c(Br)ccc2c1C(=Cc1cccc(Oc3ccc(Cl)c(Cl)c3)c1)C(=O)N2 [10738/C03]	28.0%
COc1ccc(C=C2C(=O)Nc3ccc(Br)c(C)c32)cc1O [10738/C04]	84.2%
Cc1c(Br)ccc2c1C(=Cc1cc(O)ccc1[N+](=O)[O-])C(=O)N2 [10738/C05]	−4.4%
Cc1c(Br)ccc2c1C(=Cc1cccc(O)c1O)C(=O)N2 [10738/C06]	−68.1%

SMILES	Flk Kinase % Inhibition (P.110)
Cc1c(Br)ccc2c1C(=Cc1cc(O)cc(O)c1)C(=O)N2 [10738/C07]	−7.4%
Cc1c(Br)ccc2c1C(=Cc1ccc(Cl)c(Cl)c1)C(=O)N2 [10738/C08]	−7.4%
COc1ccccc1C=C1C(=O)Nc2ccc(Br)c(C)c21 [10738/C09]	4.5%
Cc1c(Br)ccc2c1C(=Cc1ccc(C(C)C)cc1)C(=O)N2 [10738/C10]	−2.5%
CCCOc1ccc(C=C2C(=O)Nc3ccc(Br)c(C)c32)cc1 [10738/C11]	8.4%
CNS(=O)(=O)c1ccc2c(c1)C(=Cc1cccc(Oc3ccc(C)cc3)c1)C(=O)N2 [10738/D02]	2.8%
CNS(=O)(=O)c1ccc2c(c1)C(=Cc1cccc(Oc3ccc(Cl)c(Cl)c3)c1)C(=O)N2 [10738/D03]	13.6%
CNS(=O)(=O)c1ccc2c(c1)C(=Cc1ccc(OC)c(O)c1)C(=O)N2 [10738/D04]	−13.1%
CNS(=O)(=O)c1ccc2c(c1)C(=Cc1cc(O)ccc1[N+](=O)[O-])C(=O)N2 [10738/D05]	−12.5%
CNS(=O)(=O)c1ccc2c(c1)C(=Cc1cccc(O)c1O)C(=O)N2 [10738/D06]	−26.7%
CNS(=O)(=O)c1ccc2c(c1)C(=Cc1cc(O)cc(O)c1)C(=O)N2 [10738/D07]	10.3%
CNS(=O)(=O)c1ccc2c(c1)C(=Cc1ccc(Cl)c(Cl)c1)C(=O)N2 [10738/D08]	11.9%
CNS(=O)(=O)c1ccc2c(c1)C(=Cc1ccccc1OC)C(=O)N2 [10738/D09]	9.4%
CNS(=O)(=O)c1ccc2c(c1)C(=Cc1ccc(C(C)C)cc1)C(=O)N2 [10738/D10]	15.4%
CCCOc1ccc(C=C2C(=O)Nc3ccc(S(=O)(=O)NC)cc32)cc1 [10738/D11]	10.4%
Cc1ccc(Oc2cccc(C=C3C(=O)Nc4ccc(S(=O)(=O)Nc5ccc(C(F)(F)F)cc5)cc43)c2)cc1 [10738/E02]	3.6%
O=C1Nc2ccc(S(=O)(=O)Nc3ccc(C(F)(F)F)cc3)cc2C1=Cc1cccc(Oc2ccc(Cl)c(Cl)c2)c1 [10738/E03]	7.8%
COc1ccc(C=C2C(=O)Nc3ccc(S(=O)(=O)Nc4ccc(C(F)(F)F)cc4)cc32)cc1O [10738/E04]	−11.5%
O=C1Nc2ccc(S(=O)(=O)Nc3ccc(C(F)(F)F)cc3)cc2C1=Cc1cc(O)ccc1[N+](=O)[O-] [10738/E05]	−4.8%
O=C1Nc2ccc(S(=O)(=O)Nc3ccc(C(F)(F)F)cc3)cc2C1=Cc1cccc(O)c1O [10738/E06]	10.1%
O=C1Nc2ccc(S(=O)(=O)Nc3ccc(C(F)(F)F)cc3)cc2C1=Cc1cc(O)cc(O)c1 [10738/E07]	43.4%
O=C1Nc2ccc(S(=O)(=O)Nc3ccc(C(F)(F)F)cc3)cc2C1=Cc1ccc(Cl)c(Cl)c1 [10738/E08]	12.8%
COc1ccccc1C=C1C(=O)Nc2ccc(S(=O)(=O)Nc3ccc(C(F)(F)F)cc3)cc21 [10738/E09]	21.2%
CC(C)c1ccc(C=C2C(=O)Nc3ccc(S(=O)(=O)Nc4ccc(C(F)(F)F)cc4)cc32)cc1 [10738/E10]	5.1%
CCCOc1ccc(C=C2C(=O)Nc3ccc(S(=O)(=O)Nc4ccc(C(F)(F)F)cc4)cc32)cc1 [10738/E11]	10.2%

SMILES	Flk Kinase % Inhibition (P.110)
Cc1ccc(Oc2cccc(C=C3C(=O)Nc4ccc(S(=O)(=O)N5CCOCC5)cc43)c2)cc1 [10738/F02]	15.0%
O=C1Nc2ccc(S(=O)(=O)N3CCOCC3)cc2C1=Cc1cccc(Oc2ccc(Cl)c(Cl)c2)c1 [10738/F03]	9.0%
COc1ccc(C=C2C(=O)Nc3ccc(S(=O)(=O)N4CCOCC4)cc32)cc1O [10738/F04]	−32.3%
O=C1Nc2ccc(S(=O)(=O)N3CCOCC3)cc2C1=Cc1cc(O)ccc1[N+](=O)[O-] [10738/F05]	3.3%
O=C1Nc2ccc(S(=O)(=O)N3CCOCC3)cc2C1=Cc1cccc(O)c1O [10738/F06]	−12.6%
O=C1Nc2ccc(S(=O)(=O)N3CCOCC3)cc2C1=Cc1cc(O)cc(O)c1 [10738/F07]	6.4%
O=C1Nc2ccc(S(=O)(=O)N3CCOCC3)cc2C1=Cc1ccc(Cl)c(Cl)c1 [10738/F08]	16.8%
COc1ccccc1C=C1C(=O)Nc2ccc(S(=O)(=O)N3CCOCC3)cc21 [10738/F09]	1.7%
CC(C)c1ccc(C=C2C(=O)Nc3ccc(S(=O)(=O)N4CCOCC4)cc32)cc1 [10738/F10]	9.5%
CCCOc1ccc(C=C2C(=O)Nc3ccc(S(=O)(=O)N4CCOCC4)cc32)cc1 [10738/F11]	15.8%
Cc1ccc(Oc2cccc(C=C3C(=O)Nc4ccc(CCCl)cc43)c2)cc1 [10738/G02]	−10.5%
O=C1Nc2ccc(CCCl)cc2C1=Cc1cccc(Oc2ccc(Cl)c(Cl)c2)c1 [10738/G03]	−4.1%
COc1ccc(C=C2C(=O)Nc3ccc(CCCl)cc32)cc1O [10738/G04]	−57.2%
O=C1Nc2ccc(CCCl)cc2C1=Cc1cc(O)ccc1[N+](=O)[O-] [10738/G05]	4.0%
O=C1Nc2ccc(CCCl)cc2C1=Cc1cccc(O)c1O [10738/G06]	−52.4%
O=C1Nc2ccc(CCCl)cc2C1=Cc1cc(O)cc(O)c1 [10738/G07]	−19.3%
O=C1Nc2ccc(CCCl)cc2C1=Cc1ccc(Cl)c(Cl)c1 [10738/G08]	−15.2%
COc1ccccc1C=C1C(=O)Nc2ccc(CCCl)cc21 [10738/G09]	4.1%
CC(C)c1ccc(C=C2C(=O)Nc3ccc(CCCl)cc32)cc1 [10738/G10]	−17.0%
CCCOc1ccc(C=C2C(=O)Nc3ccc(CCCl)cc32)cc1 [10738/G11]	−8.1%
Cc1ccc(Oc2cccc(C=C3C(=O)Nc4c(Br)cc(Br)c(C)c43)c2)cc1 [10738/H02]	−14.6%
Cc1c(Br)cc(Br)c2c1C(=Cc1cccc(Oc3ccc(Cl)c(Cl)c3)c1)C(=O)N2 [10738/H03]	−6.2%
COc1ccc(C=C2C(=O)Nc3c(Br)cc(Br)c(C)c32)cc1O [10738/H04]	−17.9%
Cc1c(Br)cc(Br)c2c1C(=Cc1cc(O)ccc1[N+](=O)[O-])C(=O)N2 [10738/H05]	−17.9%
Cc1c(Br)cc(Br)c2c1C(=Cc1cccc(O)c1O)C(=O)N2 [10738/H06]	−44.8%
